Tests used:
Assay in all cases: checkerboard combination, clinical bacterial isolates (FIC)
Assay type in all cases: cell-based
E. coli EC_25922 = system: E. coli EC_25922
Description: (§1) The combination experiments were performed and the results were interpreted using the checkerboard method as described in Eliopoulous, G. M., and R. C. Moellering, 1996, Antimicrobial combinations, p. 330-396, In V. Lorian (ed.), Antibiotics in laboratory medicine, 4th ed., The Williams & Wilkins Co., Baltimore, Md., in 96-well microtiter plates. Compound A was serially diluted along the x-axis of the test plate to a final volume of 50 μl, and compound B was serially diluted in a separate transfer plate. Dilutions in both plates were made in CAMHB (cation-adjusted Mueller Hinton broth) for Staphylococci and in CAMHB+5% sheep blood for Streptococci. Aliquots (50 μl) of Compound B were transferred to the test plate along the y-axis thereby achieving a checkerboard matrix of antimicrobial combinations (100 μl total volume) as in FIG. 4. The first column and last row (shaded in FIG. 4) contained only compound B or compound A, respectively. Plates were then inoculated with 10 μl of the test microorganism and MICs were determined according to NCCLS guidelines (see National Committee for Clinical Laboratory Standards, 2000, Methods for Dilution Antimicrobial Susceptibility Tests for Bacteria That Grow Aerobically—Fifth Edition, Approved Standard M7-A5, NCCLS, Wayne, Pa., USA.)
(§2) Data analysis was performed as follows and according to Eliopoulous, G. M., and R. C. Moellering, 1996, Antimicrobial combinations, p. 330-396, In V. Lorian (ed.), Antibiotics in laboratory medicine, 4th ed., The Williams & Wilkins Co., Baltimore, Md. First individual FIC values for each combination in a plate were calculated: FIC(Fractional Inhibitory Concentration)=FICA+FICB • FICA=MICA+B/MICA i.e. the MIC of combination of compound A+compound B divided by the MIC of compound A alone. • FICB=MICB+A/MICB i.e. the MIC of combination of compound B+compound A divided by the MIC of compound B alone.
(§3) FIC values were calculated only for combinations that enabled determination of a true MIC (e.g. not > or <=values). FIC indexes were then calculated as the average of individual FIC values for each combination plate.

H. influenzae HI_49247 = conditions: compound G with Azithromycin
Description: as §1, §2, §3

P. aeruginosa PA_27853 = system: P. aeruginosa PA_27853
Description: as §1, §2, §3

S. aureus SA_29213 = S. aureus SA_29213 (MSSA)
Description: as §1, §2, §3

S. aureus SA_A6250596 = S. aureus SA_A6250596 (MRSA-MDR)
Description: as §1, §2, §3

S. aureus SA_A7080336 = S. aureus SA_A7080336 (MRSA)
Description: as §1, §2, §3

[1] = system: S. epidermidis SE_A7100750; conditions: S. epidermidis SE_A7100750 (MRSE CipR)
Description: as §1, §2, §3

S. mitis SMI_116 = system: S. mitis SMI_116
Description: as §1, §2, §3

S. pneumoniae SP_22257 = conditions: compound G with Azithromycin; S. pneumoniae SP_22257 (PenR EryS ClinS)
Description: as §1, §2, §3

S. pneumoniae SP_22425 = S. pneumoniae SP_22425 (PenR EryR ClinR)
Description: as §1, §2, §3

S. pyogenes SPY_20061 = S. pyogenes SPY_20061 (EryS)
Description: as §1, §2, §3

Cc1c(CN(C)C(=O)/C=C/c2cnc3c(c2)CCC(=O)N3)oc2ccccc12 [Compound G, (E)-N-methyl-N-(3-methylbenzofuran-2-ylmethyl)-3-(7-oxo-5,6,7,8-tetrahydro-1,8-naphthyridin-3-yl)acrylamide]
FIC (E. coli EC_25922; compound G with Ceftriaxone): 0.7
FIC (E. coli EC_25922; compound G with Gatifloxacin): <2
FIC (E. coli EC_25922; compound G with Meropenem): 0.6
FIC (H. influenzae HI_49247): <2
FIC (P. aeruginosa PA_27853; compound G with Gatifloxacin): <2
FIC (P. aeruginosa PA_27853; compound G with Meropenem): <2
FIC (S. aureus SA_29213; compound G with Azithromycin): 0.6
FIC (S. aureus SA_29213; compound G with Ceftriaxone): <2
FIC (S. aureus SA_29213; compound G with Cefuroxime): <2
FIC (S. aureus SA_29213; compound G with Meropenem): 1
FIC (S. aureus SA_29213; compound G with Penicillin): 0.7
FIC (S. aureus SA_A6250596; compound G with Azithromycin): <2
FIC (S. aureus SA_A6250596; compound G with Ceftriaxone): <2
FIC (S. aureus SA_A6250596; compound G with Cefuroxime): <2
FIC (S. aureus SA_A6250596; compound G with Gatifloxacin): 1
FIC (S. aureus SA_A6250596; compound G with Levofloxacin): 1
FIC (S. aureus SA_A6250596; compound G with Meropenem): <2
FIC (S. aureus SA_A6250596; compound G with Penicillin): <2
FIC (S. aureus SA_A7080336; compound G with Gatifloxacin): 0.6
FIC (S. aureus SA_A7080336; compound G with Levofloxacin): 0.6
FIC ([1]; compound G with Ceftriaxone): 1
FIC ([1]; compound G with Gatifloxacin): <2
FIC ([1]; compound G with Meropenem): 0.6
FIC (S. mitis SMI_116; compound G with Ceftriaxone): <2
FIC (S. mitis SMI_116; compound G with Gatifloxacin): <2
FIC (S. mitis SMI_116; compound G with Meropenem): <2
FIC (S. mitis SMI_116; compound G with Penicillin): <2
FIC (S. pneumoniae SP_22257): <2
FIC (S. pneumoniae SP_22425; compound G with Ceftriaxone): <2
FIC (S. pneumoniae SP_22425; compound G with Cefuroxime): <2
FIC (S. pneumoniae SP_22425; compound G with Gatifloxacin): <2
FIC (S. pneumoniae SP_22425; compound G with Levofloxacin): <2
FIC (S. pneumoniae SP_22425; compound G with Meropenem): <2
FIC (S. pyogenes SPY_20061; compound G with Ceftriaxone): <2
FIC (S. pyogenes SPY_20061; compound G with Gatifloxacin): <2

Source: US7879872B2, “Compositions comprising multiple bioactive agents, and methods of using the same” (Affinium Pharmaceuticals, Inc., priority 2003, dated 2011)
